Measurements published in PMC3914206.

Tests used:
Type in all cases: binding
panel of 442 kinases [1] = molecular target: T1, panel of 442 kinases (Homo sapiens, UniProt Q9UEW8); details: kinase STK39; compound concentration 10 µM
T1 construct: purchased KINOMEscan
From the text: (§1) We assessed the selectivity of members of this scaffold using the KINOMEscan methodology across a near comprehensive panel of 442 kinases [[18,27]].

panel of 442 kinases [2] = molecular target: T2, panel of 442 kinases (Homo sapiens, UniProt P21127); details: Compound Concentration 10 µM
T2 construct: purchased KINOMEscan
T2 sequence (P21127 whole entry): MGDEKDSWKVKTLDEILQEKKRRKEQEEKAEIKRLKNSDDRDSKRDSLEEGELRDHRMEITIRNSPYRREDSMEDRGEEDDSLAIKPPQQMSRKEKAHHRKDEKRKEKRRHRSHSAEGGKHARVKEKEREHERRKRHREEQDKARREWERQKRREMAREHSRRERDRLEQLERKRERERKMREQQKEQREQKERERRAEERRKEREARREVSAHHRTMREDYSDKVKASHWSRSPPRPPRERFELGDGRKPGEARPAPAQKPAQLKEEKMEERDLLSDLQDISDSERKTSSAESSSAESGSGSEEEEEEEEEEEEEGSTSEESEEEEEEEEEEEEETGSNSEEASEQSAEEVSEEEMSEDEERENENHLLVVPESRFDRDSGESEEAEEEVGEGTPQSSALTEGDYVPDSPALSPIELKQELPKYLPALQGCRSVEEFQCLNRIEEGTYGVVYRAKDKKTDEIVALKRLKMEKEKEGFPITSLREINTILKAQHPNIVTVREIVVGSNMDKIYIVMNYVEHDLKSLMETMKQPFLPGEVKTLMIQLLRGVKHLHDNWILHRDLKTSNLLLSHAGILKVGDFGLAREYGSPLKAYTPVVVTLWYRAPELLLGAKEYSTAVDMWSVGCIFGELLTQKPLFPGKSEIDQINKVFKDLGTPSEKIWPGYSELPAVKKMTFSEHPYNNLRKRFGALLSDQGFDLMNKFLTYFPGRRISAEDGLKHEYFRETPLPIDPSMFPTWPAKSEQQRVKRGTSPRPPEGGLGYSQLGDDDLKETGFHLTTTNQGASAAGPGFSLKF
From the text: as §1

panel of 442 kinases [3] = molecular target: T3, panel of 442 kinases (Homo sapiens, UniProt Q9NWZ3); details: Compound Concentration 10 µM
T3 construct: purchased KINOMEscan
T3 sequence (Q9NWZ3 1-460): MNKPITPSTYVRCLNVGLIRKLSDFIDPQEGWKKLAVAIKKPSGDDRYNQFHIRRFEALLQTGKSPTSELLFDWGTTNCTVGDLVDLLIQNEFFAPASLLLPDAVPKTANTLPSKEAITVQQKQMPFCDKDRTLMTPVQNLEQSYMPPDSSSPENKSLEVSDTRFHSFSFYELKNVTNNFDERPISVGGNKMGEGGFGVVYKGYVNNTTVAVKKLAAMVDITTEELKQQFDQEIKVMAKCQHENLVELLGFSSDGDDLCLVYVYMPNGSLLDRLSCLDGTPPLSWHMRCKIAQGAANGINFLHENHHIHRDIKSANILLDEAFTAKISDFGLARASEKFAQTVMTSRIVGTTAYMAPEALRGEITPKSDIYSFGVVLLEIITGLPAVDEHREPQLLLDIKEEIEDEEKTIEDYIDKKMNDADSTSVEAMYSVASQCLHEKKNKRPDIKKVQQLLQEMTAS
From the text: as §1

COc1cc(C(=O)N2CCC(N3CCN(C)CC3)CC2)ccc1Nc1ncc2c(n1)N1CCc3cccc(c31)C(=O)N2C [Compound 24]
% Ctrl, STK39 (panel of 442 kinases [1]): 100 % Ctrl

CCOc1cc(C(=O)N2CCC(N3CCN(C)CC3)CC2)ccc1Nc1ncc2c(n1)N(C1CCCC1)c1ccccc1C(=O)N2C [Compound 26]
KINOMEscan: CDC2L1 (panel of 442 kinases [2]): 100 | KINOMEscan: IRAK4 (panel of 442 kinases [3]): 100 | % Ctrl, STK39 (panel of 442 kinases [1]): 100 % Ctrl

COc1cc(C(=O)N2CCC(N3CCN(C)CC3)CC2)ccc1Nc1ncc2c(n1)N(C1CCCC1)c1ccccc1C(=O)N2C [Compound 25, 11-cyclopentyl-2-((2-methoxy-4-(4-(4-methylpiperazin-1-yl)piperidine-1-carbonyl)phenyl)amino)-5-methyl-5H-benzo[e]pyrimido[5,4-b][1,4]diazepin-6(11H)-one]
KINOMEscan: CDC2L1 (panel of 442 kinases [2]): 81 | KINOMEscan: IRAK4 (panel of 442 kinases [3]): 100 | % Ctrl, STK39 (panel of 442 kinases [1]): 100 % Ctrl

COc1cc(C(=O)N2CCC(N3CCN(C)CC3)CC2)ccc1Nc1ncc2c(n1)N(C)c1ccccc1C(=O)N2C [15 (LRRK2-IN-1)]
KINOMEscan: CDC2L1 (panel of 442 kinases [2]): 84 | KINOMEscan: IRAK4 (panel of 442 kinases [3]): 83 | % Ctrl, STK39 (panel of 442 kinases [1]): 39 % Ctrl
